Source: patent US20100190747A1, “Fused ring compound and use thereof” (priority 2009, published 2010)

What follows are compounds tested against T1, delta-5-desaturase (Rattus norvegicus, UniProt Q920R3) (assay: Inhibitory activity on delta-5-desaturase (rat liver microsomal fraction, 14C-eicosatrienoic acid, TLC)). Conditions: test compound at 10 μM, room temperature, 120 minutes.
T1 construct: the microsomal fraction of a rat river (10 μl), which had been diluted to 3 mg/ml; from tissue; host or cells: rat liver microsomal fraction
T1 sequence (Q920R3 whole entry): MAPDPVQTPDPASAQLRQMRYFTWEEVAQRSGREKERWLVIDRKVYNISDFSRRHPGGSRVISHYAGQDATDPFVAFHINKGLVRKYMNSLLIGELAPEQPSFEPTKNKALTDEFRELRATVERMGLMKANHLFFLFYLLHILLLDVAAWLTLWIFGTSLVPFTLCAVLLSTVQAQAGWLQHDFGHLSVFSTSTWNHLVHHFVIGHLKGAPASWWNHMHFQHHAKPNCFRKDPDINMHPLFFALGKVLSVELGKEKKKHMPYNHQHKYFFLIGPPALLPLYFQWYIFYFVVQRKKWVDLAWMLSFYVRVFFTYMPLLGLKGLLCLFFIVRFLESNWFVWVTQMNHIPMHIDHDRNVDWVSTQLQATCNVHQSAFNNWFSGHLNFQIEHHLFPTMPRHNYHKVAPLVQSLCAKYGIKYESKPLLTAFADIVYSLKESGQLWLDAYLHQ
Type: biochemical
Procedure: An inhibitory activity of a test compound on delta-5-desaturase was measured according to the method described herein below. To a DMSO solution of the test compound which had been previously prepared, secondary dilution was carried out by using a buffer (300 mM NaH2PO4 [pH 7.4], 450 mM KCl, 30 mM NaF, 9 mM MgCl2, 4.5 mM glutathione [reduced form], 0.3% BSA [fatty acid free, SIGMA]). This diluent compound (10 μl) was added in a 96-well deep well block made of polypropylene, and then the microsomal fraction of a rat river (10 μl), which had been diluted to 3 mg/ml by using a microsome buffer (10 mM Tris-HCl [pH 7.4], 1 mM EDTA, and 250 mM sucrose), was added thereto. The enzyme reaction was initiated by adding 10 μl of 9 mM NADH, 9 mM ATP, 0.9 mM CoA and 10 μCi/ml (8E,11E,14E)-(1-^14C)eicosa-8,11,14-trienoic acid (PerkinElmer Inc.). The enzyme reaction was carried out at room temperature for 120 minutes, and then terminated by addition of 2.5 M NaOH (10 μl). Upon the completion of the reaction, the plate was covered with plate seal and incubated overnight in a dry heater of which temperature was set at 55° C. for saponification. Based on Bligh & Dyer method which had been described in a known document, Canadian Journal of Biochemistry and Physiology (Can. J. Biochem. Physiol.), Vol. 37, page 911, 1959), the solvent extraction of fatty acid was carried out by adding 200 μl of formic acid:methanol:chloroform (1:6:3), keeping the mixture as a single layer for a while, stirring the mixture to a sufficient level, and adding 120 μl of pure water to separate the mixture into two layers. 10 μl of the bottom chloroform layer was spotted on a reverse phase TLC plate (RP-18, 1154230001, Merck Japan, Ltd.) and then developed with acetonitrile:pure water:acetic acid (95:4.5:0.5). The TLC plate obtained after drying was transferred to an Imaging Plate (Fuji Photo Film Co., Ltd.) for more than 5 hours. Detection was carried out by using BAS-5000 (Fuji Photo Film Co., Ltd.). Numerization of thus-obtained image was carried out by using Multi Gauge Ver 2.3 (Fuji Photo Film Co., Ltd.) and an inhibitory ratio (%) of the test compound at 10 μM on delta-5-desaturase was obtained.
In the case of `CCSc1nc2cc[nH]c2c(=O)n1-c1ccc(OCC2CC2)cc1` [Example 153, 3-[4-(Cyclopropylmethoxy)phenyl]-2-(ethylsulfanyl)-3,5-dihydro-4H-pyrrolo[3,2-d]pyrimidin-4-one], the inhibition at 10 µM is reported as 98%.
With `CCOc1nc2c(c(=O)n1-c1ccc(OCC(F)(F)C(F)(F)F)cc1)CC(=O)N2` [Example 277, 2-Ethoxy-3-[4-(2,2,3,3,3-pentafluoropropoxy)phenyl]-5,7-dihydro-3H-pyrrolo[2,3-d]pyrimidine-4,6-dione] the inhibition at 10 µM was 94%.
For `CC(C)(C)COc1ccc(-n2c(SCCCC(=O)NCCC#N)nc3cc[nH]c3c2=O)cc1` [Example 115, N-(2-cyanoethyl)-4-({3-[4-(2,2-dimethylpropoxy)phenyl]-4-oxo-4,5-dihydro-3H-pyrrolo[3,2-d]pyrimidin-2-yl}sulfanyl)butanamide], the inhibition at 10 µM was 103%.
With `O=c1c2cc[nH]c2nc(SCC(F)(F)F)n1-c1ccc(OCC(F)(F)F)cc1` [Example 225, 3-[4-(2,2,2-Trifluoroethoxy)phenyl]-2-[(2,2,2-trifluoroethyl)sulfanyl]-3,7-dihydro-4H-pyrrolo[2,3-d]pyrimidin-4-one] the inhibition at 10 µM was 100%.
With `O=C1Cc2c(nc(OCCC3CC3)n(-c3ccc(OCC(F)(F)F)cc3)c2=O)N1` [Example 319, 2-(2-Cyclopropylethoxy)-3-[4-(2,2,2-trifluoroethoxy)phenyl]-5,7-dihydro-3H-pyrrolo[2,3-d]pyrimidine-4,6-dione] the inhibition at 10 µM was 104%.
With `CSc1nc2[nH]ccc2c(=O)n1-c1ccc(OCC(F)(F)F)cc1` [Example 212, 2-(Methylsulfanyl)-3-[4-(2,2,2-trifluoroethoxy)phenyl]-3,7-dihydro-4H-pyrrolo[2,3-d]pyrimidin-4-one] the inhibition at 10 µM was 98%.
With `O=C1Cc2c(nc(OCCC(F)(F)F)n(-c3ccc(OCC(F)(F)F)cc3)c2=O)N1` [Example 341, 3-[4-(2,2,2-Trifluoroethoxy)phenyl]-2-(3,3,3-trifluoropropoxy)-5,7-dihydro-3H-pyrrolo[2,3-d]pyrimidine-4,6-dione] the inhibition at 10 µM was 99%.
In the case of `CCSc1nc2[nH]ccc2c(=O)n1-c1ccc(OCC(F)F)cc1` [Example 248, 3-[4-(2,2-Difluoroethoxy)phenyl]-2-(ethylsulfanyl)-3,7-dihydro-4H-pyrrolo[2,3-d]pyrimidin-4-one], the inhibition at 10 µM is reported as 101%.
Work on `CCCSc1nc2c(c(=O)n1-c1ccc(OCC(F)(F)F)cc1)CC(=O)N2` [Example 286, 2-(Propylsulfanyl)-3-[4-(2,2,2-trifluoroethoxy)phenyl]-5,7-dihydro-3H-pyrrolo[2,3-d]pyrimidine-4,6-dione] yielded an inhibition at 10 µM of 102%.
`CC(CCSc1nc2cc[nH]c2c(=O)n1-c1ccc(OCC(F)(F)F)cc1)C(=O)NCCC#N` (stereo not shown) [Example 85, N-(2-cyanoethyl)-2-methyl-4-({4-oxo-3-[4-(2,2,2-trifluoroethoxy)phenyl]-4,5-dihydro-3H-pyrrolo[3,2-d]pyrimidin-2-yl)sulfanyl)butanamide] gave an inhibition at 10 µM of 99%.
Work on `CCSc1nc2[nH]ccc2c(=O)n1-c1ccc(OCC2CC2)cc1` [Example 208, 3-[4-(Cyclopropylmethoxy)phenyl]-2-(ethylsulfanyl)-3,7-dihydro-4H-pyrrolo[2,3-d]primidin-4-one] yielded an inhibition at 10 µM of 100%.
In the case of `CCOc1ccc(-n2c(SCCCC(=O)NCCC#N)nc3cc[nH]c3c2=O)cc1` [Example 60, N-(2-cyanoethyl)-4-{[3-(4-ethoxyphenyl)-4-oxo-4,5-dihydro-3H-pyrrolo[3,2-d]pyrimidin-2-yl]sulfanyl}butanamide], the inhibition at 10 µM is reported as 99%.
`N#CCCNC(=O)CCCSc1nc2[nH]ccc2c(=O)n1-c1ccc(OCC2CC2(F)F)cc1` (stereo not shown) [Example 177, N-(2-cyanoethyl)-4-[(3-{4-[(2,2-difluorocyclopropyl)methoxy]phenyl}-4-oxo-4,7-dihydro-3H-pyrrolo[2,3-d]pyrimidin-2-yl)sulfanyl]butanamide] was tested, and the inhibition at 10 µM was 100%.
Compound `CCSc1nc2c(c(=O)n1-c1ccc(OCC3CC3)cc1)CC(=O)N2` [Example 300, 3-[4-(Cyclopropylmethoxy)phenyl]-2-(ethylsulfanyl)-5,7-dihydro-3H-pyrrolo[2,3-d]pyrimidine-4,6-dione] has an inhibition at 10 µM of 101%.
In the case of `O=C1Cc2c(nc(OCC(F)F)n(-c3ccc(OCC(F)(F)F)cc3)c2=O)N1` [Example 275, 2-(2,2-Difluoroethoxy)-3-[4-(2,2,2-trifluoroethoxy)phenyl]-5,7-dihydro-3H-pyrrolo[2,3-d]pyrimidine-4,6-dione], the inhibition at 10 µM is reported as 99%.
For `O=C(CCCSc1nc2cc[nH]c2c(=O)n1-c1ccc(OCC(F)(F)F)cc1)N1CCC(O)CC1` [Example 98, 2-{[4-(4-Hydroxypiperidin-1-yl)-4-oxobutyl]sulfanyl}-3-[4-(2,2,2-trifluoroethoxy)phenyl]-3,5-dihydro-4H-pyrrolo[3,2-d]pyrimidin-4-one], the inhibition at 10 µM was 100%.
Compound `CC(C)S(=O)(=O)CCCSc1nc2cc[nH]c2c(=O)n1-c1ccc(OCC2CC2)cc1` [Example 164, 3-[4-(Cyclopropylmethoxy)phenyl]-2-({3-[(1-methylethyl)sulfonyl]propyl}sulfanyl)-3,5-dihydro-4H-pyrrolo[3,2-d]pyrimidin-4-one] has an inhibition at 10 µM of 101%.
In the case of `O=c1c2cc[nH]c2nc(SC(F)F)n1-c1ccc(OCC(F)(F)F)cc1` [Example 223, 2-[(Difluoromethyl)sulfanyl]-3-[4-(2,2,2-trifluoroethoxy)phenyl]-3,7-dihydro-4H-pyrrolo[2,3-d]pyrimidin-4-one], the inhibition at 10 µM is reported as 103%.
Work on `CCSc1nc2[nH]ccc2c(=O)n1-c1ccc(OC(F)(F)F)cc1` [Example 254, 2-(Ethylsulfanyl)-3-[4-(trifluoromethoxy)phenyl]-3,7-dihydro-4H-pyrrolo[2,3-d]pyrimidin-4-one] yielded an inhibition at 10 µM of 98%.
`CCSc1nc2[nH]ccc2c(=O)n1-c1ccc(OCC(F)(F)F)cc1` [Example 194, 2-(Ethylsulfanyl)-3-[4-(2,2,2-trifluoroethoxy)phenyl]-3,7-dihydro-4H-pyrrolo[2,3-d]pyrimidin-4-one] showed an inhibition at 10 µM of 103%.
In the case of `CCOc1ccc(-n2c(SCC(=O)NCCC#N)nc3[nH]ccc3c2=O)cc1` [Example 173, N-(2-cyanoethyl)-2-{[3-(4-ethoxyphenyl)-4-oxo-4,7-dihydro-3H-pyrrolo[2,3-d]pyrimidin-2-yl]sulfanyl}acetamide], the inhibition at 10 µM is reported as 97%.
In the case of `O=c1c2[nH]ccc2nc(SCCCS(=O)(=O)CC2CC2)n1-c1ccc(OCC2CC2)cc1` [Example 166, 3-[4-(Cyclopropylmethoxy)phenyl]-2-({3-[(cyclopropylmethyl)sulfonyl]propyl}sulfanyl)-3,5-dihydro-4H-pyrrolo[3,2-d]pyrimidin-4-one], the inhibition at 10 µM is reported as 101%.
Work on `CC(C)Sc1nc2[nH]ccc2c(=O)n1-c1ccc(OCC(F)(F)F)cc1` [Example 251, 2-[(1-Methylethyl)sulfanyl]-3-[4-(2,2,2-trifluoroethoxy)phenyl]-3,7-dihydro-4H-pyrrolo[2,3-d]pyrimidin-4-one] yielded an inhibition at 10 µM of 97%.
With `O=c1c2[nH]ccc2nc(SCCCO)n1-c1ccc(OCC(F)(F)F)cc1` [Example 116, 2-[(3-Hydroxypropyl)sulfanyl]-3-[4-(2,2,2-trifluoroethoxy)phenyl]-3,5-dihydro-4H-pyrrolo[3,2-d]pyrimidin-4-one] the inhibition at 10 µM was 101%.
`CC(C)CSc1nc2c(c(=O)n1-c1ccc(OCC(F)(F)F)cc1)CC(=O)N2` [Example 313, 2-[(2-Methylpropyl)sulfanyl]-3-[4-(2,2,2-trifluoroethoxy)phenyl]-5,7-dihydro-3H-pyrrolo[2,3-d]pyrimidine-4,6-dione] was tested, and the inhibition at 10 µM was 102%.
Compound `CS(=O)(=O)CCCSc1nc2cc[nH]c2c(=O)n1-c1ccc(OCC(F)(F)F)cc1` [Example 80, 2-{[3-(Methylsulfonyl)propyl]sulfanyl}-3-[4-(2,2,2-trifluoroethoxy)phenyl]-3,5-dihydro-4H-pyrrolo[3,2-d]pyrimidin-4-one] has an inhibition at 10 µM of 98%.
`O=c1c2cc[nH]c2nc(OCC(F)(F)F)n1-c1ccc(OCC(F)(F)F)c(F)c1` [Example 264, 3-[3-Fluoro-4-(2,2,2-trifluoroethoxy)phenyl]-2-(2,2,2-trifluoroethoxy)-3,7-dihydro-4H-pyrrolo[2,3-d]pyrimidin-4-one] gave an inhibition at 10 µM of 101%.
`CC(C)(O)CNC(=O)CCCSc1nc2cc[nH]c2c(=O)n1-c1ccc(OCC(F)(F)F)cc1` [Example 99, N-(2-hydroxy-2-methylpropyl)-4-({4-oxo-3-[4-(2,2,2-trifluoroethoxy)phenyl]-4,5-dihydro-3H-pyrrolo[3,2-d]pyrimidin-2-yl}sulfanyl)butanamide] showed an inhibition at 10 µM of 94%.
